Experimental data from ChEMBL document CHEMBL3217667, “Extended side chain analogues of 8-aminoquinolines: Synthesis and evaluation of antiprotozoal, antimicrobial, -hematin inhibition, and cytotoxic activities” (Medchemcomm, 2011).
In brackets after ≈: the same amount, converted by molar mass. Activity calls are given as the source filed them. The calls are words filed in the database; no cut-off is given here.

Key:
Staphylococcus aureus [1] = assay: Antibacterial activity against methicillin-resistant Staphylococcus aureus up to 20 ug/ml; format: functional, organism-based
[2] = system: Mycobacterium intracellulare; assay: Antibacterial activity against Mycobacterium intracellulare up to 20 ug/ml; format: functional, organism-based
Plasmodium falciparum [3] = assay: Antimalarial activity against chloroquine-sensitive Plasmodium falciparum D6 by lactate dehydrogenase assay; format: functional, organism-based; details: Plasmodium falciparum, D6; read-out: IC50
[4] = Selectivity index, ratio of IC50 for African green monkey Vero cells to IC50 for chloroquine-sensitive Plasmodium falciparum D6; format: toxicity, cell-based; details: read-out: Ratio IC50
Plasmodium falciparum [5] = assay: Antimalarial activity against chloroquine-resistant Plasmodium falciparum W2 by lactate dehydrogenase assay; format: functional, organism-based; details: Plasmodium falciparum, W2; read-out: IC50
[6] = Selectivity index, ratio of IC50 for African green monkey Vero cells to IC50 for chloroquine-resistant Plasmodium falciparum W2; format: toxicity, cell-based; details: read-out: Ratio IC50
Vero = assay: Cytotoxicity against African green monkey Vero cells by neutral red uptake assay; format: cell-based; details: Chlorocebus sabaeus
SK-MEL = assay: Cytotoxicity against human SK-MEL cells by neutral red uptake assay; format: cell-based
KB = assay: Cytotoxicity against human KB cells by neutral red uptake assay; format: cell-based
BT-549 = assay: Cytotoxicity against human BT549 cells by neutral red uptake assay; format: cell-based
SK-OV-3 = assay: Cytotoxicity against human SKOV3 cells by neutral red uptake assay; format: cell-based
LLC-PK1 = assay: Cytotoxicity against pig LLC-PK1 cells by neutral red uptake assay; format: cell-based; details: Sus scrofa
[7] = Inhibition of beta-hematin formation after 16 hrs; format: physicochemical
Leishmania donovani = assay: Antileishmanial activity against Leishmania donovani promastigotes by Alamar Blue assay; format: functional, organism-based
Plasmodium berghei [8] = assay: Antimalarial activity against Plasmodium berghei infected in mouse assessed as reduction in parasitemia at 100 mg/kg/day, po for 4 days measured up to day 14; format: functional
Staphylococcus aureus [9] = assay: Antibacterial activity against Staphylococcus aureus; format: functional, organism-based
Staphylococcus aureus [10] = assay: Antibacterial activity against methicillin-resistant Staphylococcus aureus; format: functional, organism-based
[11] = system: Mycobacterium intracellulare; assay: Antibacterial activity against Mycobacterium intracellulare; format: functional, organism-based
Cryptococcus neoformans = assay: Antifungal activity against Cryptococcus neoformans by broth microdilution assay; format: functional, organism-based
Pseudomonas aeruginosa = assay: Antibacterial activity against Pseudomonas aeruginosa; format: functional, organism-based
Escherichia coli = assay: Antibacterial activity against Escherichia coli; format: functional, organism-based
Candida albicans = assay: Antifungal activity against Candida albicans by broth microdilution assay; format: functional, organism-based
Nakaseomyces glabratus = assay: Antifungal activity against Candida glabrata by broth microdilution assay; format: functional, organism-based
Pichia kudriavzevii = assay: Antifungal activity against Candida krusei by broth microdilution assay; format: functional, organism-based
Aspergillus fumigatus = assay: Antifungal activity against Aspergillus fumigatus by broth microdilution assay; format: functional, organism-based
Plasmodium berghei [12] = assay: Antimalarial activity against Plasmodium berghei infected in mouse assessed as reduction in parasitemia at 10 mg/kg/day, po for 4 days measured up to day 7; format: functional, organism-based
Plasmodium berghei [13] = assay: Antimalarial activity against Plasmodium berghei infected in mouse assessed as reduction in parasitemia at 25 mg/kg/day, po for 4 days measured up to day 60 relative to control; format: functional; design: scale not given: the % may be the effect or the level left
Plasmodium berghei [14] = assay: Antimalarial activity against Plasmodium berghei infected in mouse assessed as reduction in parasitemia at 50 mg/kg/day, po for 4 days measured up to day 60 relative to control; format: functional; design: scale not given: the % may be the effect or the level left
Plasmodium berghei [15] = assay: Antimalarial activity against Plasmodium berghei infected in mouse assessed as reduction in parasitemia at 100 mg/kg/day, po for 4 days measured up to day 60 relative to control; format: functional; design: scale not given: the % may be the effect or the level left

SMILES	IC50 (Plasmodium falciparum [3]) [µg/mL]	selectivity ratio [4]	IC50 (Plasmodium falciparum [5]) [µg/mL]	selectivity ratio [6]	IC50 (Vero) [µg/mL]	IC50 (SK-MEL) [µg/mL]	IC50 (KB) [µg/mL]	IC50 (BT-549) [µg/mL]	IC50 (SK-OV-3) [µg/mL]	IC50 (LLC-PK1) [µg/mL]	IC50 [7] [µM]	IC50 (Leishmania donovani) [µg/mL]	IC90 (Leishmania donovani) [µg/mL]	Activity (Plasmodium berghei [8])	IC50 (Staphylococcus aureus [10]) [µg/mL]	IC50 [11] [µg/mL]	IC50 (Cryptococcus neoformans) [µg/mL]	MFC (Cryptococcus neoformans) [µg/mL]	MIC (Cryptococcus neoformans) [µg/mL]	Activity (Pseudomonas aeruginosa)	other results
CCCCOc1c(OC)cc(NC(C)CCCNC(C)CCCNC(C)CCCN)c2nccc(CC)c12.Cl (stereo unspecified)	0.54	> 44	0.58	> 41	> 23.8	> 23.8	> 23.8	> 23.8	> 23.8	> 23.8	19.7	14	32	inactive	> 20	> 20	12.1	20	20	inactive	Activity (Staphylococcus aureus [1]): inactive; Activity [2]: inactive; IC50 (Staphylococcus aureus [9]): 12 µg/mL; MBC (Staphylococcus aureus [9]): 20 µg/mL; MIC (Staphylococcus aureus [9]): 20 µg/mL; Activity (Escherichia coli): inactive; Activity (Candida albicans): inactive; Activity (Nakaseomyces glabratus): inactive; Activity (Pichia kudriavzevii): inactive; Activity (Aspergillus fumigatus): inactive
CCCCCOc1c(OC)cc(NC(C)CCCNC(C)CCCN)c2nccc(CC)c12.Cl (stereo unspecified)	0.52	> 45.7	0.18	> 132	> 23.8	> 23.8	> 23.8	> 23.8	> 23.8	> 23.8	9.6	3.7	7	inactive	13.4	> 20	5.8	10	10	inactive	Activity [2]: inactive; IC50 (Staphylococcus aureus [9]): 13.6 µg/mL; MBC (Staphylococcus aureus [9]): 20 µg/mL; MIC (Staphylococcus aureus [9]): 20 µg/mL; MBC (Staphylococcus aureus [10]): 20 µg/mL; MIC (Staphylococcus aureus [10]): 20 µg/mL; Activity (Escherichia coli): inactive; Activity (Candida albicans): inactive; Activity (Nakaseomyces glabratus): inactive; Activity (Pichia kudriavzevii): inactive; Activity (Aspergillus fumigatus): inactive
C[C@@H]1[C@H](O)[C@@H](C)/C=C/C=C/C=C/C=C/C=C/C=C/C=C/[C@H](O[C@@H]2O[C@H](C)[C@@H](O)[C@H](N)[C@@H]2O)C[C@@H]2O[C@](O)(C[C@@H](O)C[C@@H](O)[C@H](O)CC[C@@H](O)C[C@@H](O)CC(=O)O[C@H]1C)C[C@H](O)[C@H]2C(=O)O [AMPHOTERICIN B]	–	–	–	–	–	–	–	–	–	–	–	–	0.35 (≈ 0.379 µM)	–	–	–	–	1.5 (≈ 1.62 µM)	–	–	MFC (Nakaseomyces glabratus): 0.625 µg/mL (≈ 0.676 µM); MIC (Nakaseomyces glabratus): 0.31 µg/mL (≈ 0.335 µM)
COc1cc(NC(C)CCCNC(C)CCCNC(C)CCCNC(C)CCCN)c2nc(C(C)(C)C)ccc2c1.Cl (stereo unspecified)	0.7	> 34	0.56	> 42.5	> 23.8	> 23.8	> 23.8	> 23.8	> 23.8	> 23.8	10.2	1.6	7.3	100%	10	15	10	20	20	inactive	Activity (Plasmodium berghei [12]): Active; Activity (Plasmodium berghei [13]): 100%; Activity (Plasmodium berghei [14]): 100%; Activity (Plasmodium berghei [15]): 100%; MBC (Staphylococcus aureus [10]): 20 µg/mL; MIC (Staphylococcus aureus [10]): 20 µg/mL; MBC [11]: 20 µg/mL; MIC [11]: 20 µg/mL; Activity (Escherichia coli): inactive; Activity (Candida albicans): inactive; Activity (Nakaseomyces glabratus): inactive; Activity (Pichia kudriavzevii): inactive; Activity (Aspergillus fumigatus): inactive
CCN(CC)CCCC(C)Nc1ccnc2cc(Cl)ccc12 (stereo unspecified) [CHLOROQUINE]	–	–	–	–	–	–	–	–	–	–	80	–	–	–	–	–	–	–	–	–	–
CCCCCOc1c(OC)cc(NC(C)CCCNC(C)CCCNC(C)CCCNC(C)CCCN)c2nccc(CC)c12.Cl (stereo unspecified)	0.44	> 54	0.42	> 56.6	> 23.8	> 23.8	> 23.8	> 23.8	> 23.8	> 23.8	11.2	3.1	7	inactive	11	17.8	5.6	10	10	inactive	Activity [2]: inactive; IC50 (Staphylococcus aureus [9]): 9.8 µg/mL; MBC (Staphylococcus aureus [9]): 20 µg/mL; MIC (Staphylococcus aureus [9]): 20 µg/mL; MBC (Staphylococcus aureus [10]): 20 µg/mL; MIC (Staphylococcus aureus [10]): 20 µg/mL; MIC [11]: 20 µg/mL; Activity (Escherichia coli): inactive; Activity (Candida albicans): inactive; Activity (Nakaseomyces glabratus): inactive; Activity (Pichia kudriavzevii): inactive; Activity (Aspergillus fumigatus): inactive
